Test results from patent US5602101A, “Antithrombotic agents” (priority 1994, dated 1997).

Key:
Assay type in all cases: biochemical
human thrombin = target: T1, human thrombin (Homo sapiens, UniProt P00734); experiment: Inhibition of amidase activity of thrombin (chromogenic substrate), Kass; conditions: substrate N-benzoyl-Phe-Val-Arg-p-nitroanilide, pH 7.4
T1 construct: purified human thrombin Enzyme Research Laboratories, South Bend, Ind; purchased Enzyme Research Laboratories, South Bend, Ind
Protocol: (§1) The assay is carried out by mixing 50 μl buffer (0.03M Tris, 0.15M NaCl, pH 7.4), 25 μl of human thrombin solution (purified human thrombin Enzyme Research Laboratories, South Bend, Ind.) at 8 NIH units/ml and 25 μl of test compound in a solvent (50% aqueous methanol (v:v)). Then 150 μl of an aqueous solution of the chromogenic substrate (at 0.25 mg/ml) are added and the rates of hydrolysis of the substrate are measured by monitoring the reactions at 405 nm for the release of p-nitroaniline. Standard curves are constructed by plotting free thrombin concentration against hydrolysis rate. The hydrolysis rates observed with test compounds are then converted to "free thrombin" values in the respective assays by use of the standard curves. The bound thrombin (bound to test compound) is calculated by subtracting the amount of free thrombin observed in each assay from the known initial amount of thrombin used in the assay. The amount of free inhibitor in each assay is calculated by subtracting the number of moles of bound thrombin from the number of moles of added inhibitor (test compound).
The Kass value is the hypothetical equilibrium constant for the reaction between thrombin and the test compound (I). [drawing 53]
(§2) Kass is calculated for a range of concentrations of test compounds and the mean value is reported in units of liter per mole.

factor Xa = target: T2, factor Xa (Homo sapiens, UniProt P00742); experiment: Serine protease inhibition, factor Xa (chromogenic substrate), Kass; conditions: substrate N-Benzoyl-Ile-Glu-Gly-Arg-p-nitroanilide
T2 construct: Human factors X, Xa, IXa, XIa, and xIIa are purchased from Enzyme Research Laboratories; purchased Enzyme Research Laboratories, South Bend, Ind
Protocol: as §1, §2
(§3) By substantially following the procedures described above for human thrombin, and using other human blood coagulation system serine proteases, and using fibrinolytic system serine proteases, with the appropriate chromogenic substrate, identified below, selectivity of the compounds of the present invention with respect to the coagulation factor serine proteases and to the fibrinolytic serine proteases are evaluated as well as their substantial lack of interference with human plasma clot fibrinolysis.
(§4) Human factors X, Xa, IXa, XIa, and xIIa are purchased from Enzyme Research Laboratories, South Bend, Ind.; human urokinase from Leo Pharmaceuticals, Denmark; and recombinant activated Protein C (aPC) is prepared at Eli Lilly and Co. substantially according to U.S. Pat. No. 4,981,952 incorporated by reference herein in its entirety. Chromogenic substrates: N-Benzoyl-Ile-Glu-Gly-Arg-p-nitroanilide (for factor Xa); N-Cbz-D-Arg-Gly-Arg-p-nitroanilide (for factor IXa assay as the factor Xa substrate) pyroglutamyl-Pro-Arg-p-nitroanilide (for factor XIa and for aPC); H-D-Pro-Phe-Arg-p-nitroanilide (for factor XIIa); and pyroglutamyl-Gly-Arg-p-nitroanilide (for urokinase); are purchased from KabiVitrum, Stockholm, Sweden, or from Midwest Biotech, Fishers, Indiana. Bovine trypsin is purchased from Worthington Biochemicals, Freehold, N.J., and human plasma kallikrein from Kabi Vitrum, Stockholm, Sweden. N-Benzoyl-Phe-Val-Arg-p-nitroanilide, the substrate for human thrombin and for trypsin, is synthesized according to procedures described above for the compounds of the present invention, known methods of peptide coupling from commercially available reactants, or was purchased from Midwest Biotech, Fishers, Ind. Human plasmin is purchased from Boehringer Mannheim, Indianapolis, Ind.; nt-PA is purchased as single chain activity reference from American Diagnostics, Greenwich, Conn.; modified-t-PA6 (mt-PA6) is prepared at Eli Lilly and Company by procedure known in the art (See, Burck, et al., J. Biol. Chem., 265, […] (1990). Plasmin chromogenic substrate H-D-Val-Leu-Lys-p-nitroanilide and tissue plasminegen activator (t-PA) substrate H-D-Ile-Pro-Arg-p-nitroanilide are purchased from Kabi Vitrum, Stockholm, Sweden.

Bovine trypsin = target: T3, Bovine trypsin (Bos taurus, UniProt P00760); experiment: Serine protease inhibition, trypsin (chromogenic substrate), Kass; conditions: substrate N-Benzoyl-Phe-Val-Arg-p-nitroanilide
T3 construct: Bovine trypsin is purchased from Worthington Biochemicals, Freehold, N.J; purchased Worthington Biochemicals, Freehold, N.J
T3 sequence (P00760 24-246): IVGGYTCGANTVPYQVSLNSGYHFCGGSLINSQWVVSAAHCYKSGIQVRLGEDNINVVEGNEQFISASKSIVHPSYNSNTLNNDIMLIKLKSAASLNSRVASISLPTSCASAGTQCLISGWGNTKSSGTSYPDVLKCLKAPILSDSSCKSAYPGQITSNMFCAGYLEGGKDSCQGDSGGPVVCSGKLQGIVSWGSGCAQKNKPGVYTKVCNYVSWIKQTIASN
Protocol: as §1, §2, §3, §4

Human plasmin = target: T4, Human plasmin (Homo sapiens, UniProt P00747); experiment: Serine protease inhibition, plasmin (chromogenic substrate), Kass; conditions: substrate H-D-Val-Leu-Lys-p-nitroanilide
T4 construct: Human plasmin is purchased from Boehringer Mannheim, Indianapolis, Ind; purchased Boehringer Mannheim, Indianapolis, Ind
Protocol: as §1, §2, §3, §4

[1] = target: T5, tissue plasminogen activator (t-PA) (Homo sapiens, UniProt P00750); experiment: Serine protease inhibition, t-PA (chromogenic substrate), Kass; conditions: substrate H-D-Ile-Pro-Arg-p-nitroanilide
T5 construct: purchased American Diagnostics, Greenwich, Conn
Protocol: as §1, §2, §3, §4

Human Plasma [2] = experiment: Anticoagulation in human plasma, thrombin time (TT); conditions: concentration required to double the thrombin time
Protocol: (§5) Dog plasma and rat plasma are obtained from conscious mixed-breed hounds (either sex, Hazelton-LRE, Kalamazoo, Mich., U.S.A.) or from anesthetized male Sprague-Dawley rats (Harlan Sprague-Dawley, Inc., Indianapolis, Ind., U.S.A.) by venipuncture into 3.8 percent citrate. Fibrinogen is prepared from in-date ACD human blood as the fraction I-2 according to previous procedures and specifications. Smith, Biochem. Chem. […] Human fibrinogen is also purchased as 98 percent pure/plasmin free from American Diagnostics, Greenwich, Conn. Coagulation reagents ACTIN, Thromboplastin, and Human plasma are from Baxter Healthcare Corp., Dade Division, Miami, Fla. Bovine thrombin from Parke-Davis (Ann Arbor, Mich.) is used for coagulation assays in plasma. Coagulation assay procedures are as previously described. Smith, et al., Thrombosis Research, 5, 163-174 (1988). A CoAScreener coagulation instrument (American LABor, Inc.) is used for all coagulation assay measurements. The prothrombin time (PT) is measured by adding 0.05 ml saline and 0.05 ml Thromboplastin-C reagent to 0.05 ml test plasma. The activated partial thromboplastin time (APTT) is measured by incubation of 0.05 ml test plasma with 0.05 ml Actin reagent for 120 seconds followed by 0.05 ml CaCl2 (0.02M). […] The compounds of formula I are added to human or animal plasma over a wide range of concentrations to determine prolongation effects on the APTT, PT, and TT assays. Linear extrapolations are performed to estimate the concentrations required to double the clotting time for each assay.

Human Plasma [3] = experiment: Anticoagulation in human plasma, activated partial thromboplastin time (APTT); conditions: concentration required to double the APTT
Protocol: as §5

Human Plasma [4] = experiment: Anticoagulation in human plasma, prothrombin time (PT); conditions: concentration required to double the PT
Protocol: as §5

T2 sequence (P00742 235-488 limits assumed): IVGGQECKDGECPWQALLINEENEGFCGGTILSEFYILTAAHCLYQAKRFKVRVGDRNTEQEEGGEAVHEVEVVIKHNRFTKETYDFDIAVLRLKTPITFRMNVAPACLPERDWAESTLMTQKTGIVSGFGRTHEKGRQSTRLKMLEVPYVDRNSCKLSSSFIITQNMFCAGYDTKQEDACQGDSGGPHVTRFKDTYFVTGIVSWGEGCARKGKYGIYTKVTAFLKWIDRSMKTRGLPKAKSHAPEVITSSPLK
T2 sequence (P00742 41-179 partner limits assumed): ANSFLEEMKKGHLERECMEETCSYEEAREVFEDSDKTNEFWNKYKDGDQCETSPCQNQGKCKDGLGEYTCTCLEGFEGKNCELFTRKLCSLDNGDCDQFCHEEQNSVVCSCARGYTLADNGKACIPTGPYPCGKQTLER
T4 sequence (P00747 581-810 limits assumed): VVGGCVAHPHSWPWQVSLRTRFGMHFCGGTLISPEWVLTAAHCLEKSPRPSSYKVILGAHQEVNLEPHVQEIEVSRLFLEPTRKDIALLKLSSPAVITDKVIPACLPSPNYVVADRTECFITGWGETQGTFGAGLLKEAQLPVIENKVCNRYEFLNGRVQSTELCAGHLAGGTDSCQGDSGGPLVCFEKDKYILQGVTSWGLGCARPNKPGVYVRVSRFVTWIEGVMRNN
T4 sequence (P00747 97-580 partner limits assumed): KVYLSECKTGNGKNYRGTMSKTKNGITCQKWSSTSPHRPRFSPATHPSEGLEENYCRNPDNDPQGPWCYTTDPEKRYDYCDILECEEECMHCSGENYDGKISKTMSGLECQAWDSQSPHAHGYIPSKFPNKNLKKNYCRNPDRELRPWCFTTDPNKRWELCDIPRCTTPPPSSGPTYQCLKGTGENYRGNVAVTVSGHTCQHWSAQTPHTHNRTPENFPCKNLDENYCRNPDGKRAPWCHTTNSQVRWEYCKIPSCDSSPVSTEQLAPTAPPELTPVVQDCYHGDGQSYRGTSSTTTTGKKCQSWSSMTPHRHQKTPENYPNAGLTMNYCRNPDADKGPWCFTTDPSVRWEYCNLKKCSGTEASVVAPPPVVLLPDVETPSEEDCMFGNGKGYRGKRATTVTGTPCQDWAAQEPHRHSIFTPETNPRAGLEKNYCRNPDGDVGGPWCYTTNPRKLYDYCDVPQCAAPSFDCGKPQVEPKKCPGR
T5 sequence (P00750 36-562): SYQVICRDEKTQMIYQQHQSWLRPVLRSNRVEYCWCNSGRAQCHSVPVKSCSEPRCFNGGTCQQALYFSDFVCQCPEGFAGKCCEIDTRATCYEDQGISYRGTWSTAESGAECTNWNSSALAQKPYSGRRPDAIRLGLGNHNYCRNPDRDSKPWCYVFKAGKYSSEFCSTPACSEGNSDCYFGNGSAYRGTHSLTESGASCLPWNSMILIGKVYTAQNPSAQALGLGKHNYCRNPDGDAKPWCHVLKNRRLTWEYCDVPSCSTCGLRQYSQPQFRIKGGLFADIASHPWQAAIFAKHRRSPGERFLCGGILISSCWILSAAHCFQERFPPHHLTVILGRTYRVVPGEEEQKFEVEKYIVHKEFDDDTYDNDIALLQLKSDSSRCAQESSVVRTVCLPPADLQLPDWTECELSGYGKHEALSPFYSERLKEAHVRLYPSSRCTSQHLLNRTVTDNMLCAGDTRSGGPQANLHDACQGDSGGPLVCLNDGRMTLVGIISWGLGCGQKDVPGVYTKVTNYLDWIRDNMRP

Question: With CCNC(=O)N[C@H](Cc1ccccc1)C(=O)N1CCC[C@H]1C(=O)N[C@H](C=O)CCCN=C(N)N.Cl [Example 32, EtNHCO-D-Phe-Pro-Arg-H.HCl] as the molecule, how does the “Enzyme Kass, Human Thrombin” value (human thrombin) read?
Answer: Its value is 25 L/mol × 10^6.

Question: And the “Enzyme Kass, Xa” value (factor Xa)?
Answer: The value was 0.21 L/mol × 10^6.

Question: And the “Enzyme Kass, Trypsin” value (Bovine trypsin)?
Answer: Its value is 60 L/mol × 10^6.

Question: And the “Enzyme Kass, Plasmin” value (Human plasmin)?
Answer: The value was 2.0 L/mol × 10^6.

Question: What about the “Enzyme Kass, t-Pa” value [1] of the same molecule?
Answer: The value was 0.54 L/mol × 10^6.

Question: What about the “2 × Clotting time, TT” value (Human Plasma [2]) of the same molecule?
Answer: The value was 63 ng/mL.

Question: And the “2 × Clotting time, APTT” value (Human Plasma [3])?
Answer: The value was 1,100 ng/ML.

Question: And the “2 × Clotting time, PT” value (Human Plasma [4])?
Answer: The value was 1,700 ng/ML.

Question: For COc1ccc(OC)c(S(=O)(=O)N[C@H](Cc2ccccc2)C(=O)N2CCC[C@H]2C(=O)N[C@H](C=O)CCCNC(=N)N)c1.Cl [Example 15, 2,5-(MeO)2 -PhSO2 -D-Phe-Pro-Arg-H-HCl], which “Enzyme Kass, Human Thrombin” value (human thrombin) is on record?
Answer: The value was 200 L/mol × 10^6.

Question: What about the “Enzyme Kass, Xa” value (factor Xa) of the same molecule?
Answer: The value was 8.8 L/mol × 10^6.

Question: What about the “Enzyme Kass, Trypsin” value (Bovine trypsin) of the same molecule?
Answer: Its value is 150 L/mol × 10^6.

Question: What about the “Enzyme Kass, Plasmin” value (Human plasmin) of the same molecule?
Answer: Its value is 9.5 L/mol × 10^6.

Question: What about the “Enzyme Kass, t-Pa” value [1] of the same molecule?
Answer: The value was 1.5 L/mol × 10^6.

Question: What about the “2 × Clotting time, TT” value (Human Plasma [2]) of the same molecule?
Answer: Its value is 92 ng/mL.

Question: What about the “2 × Clotting time, APTT” value (Human Plasma [3]) of the same molecule?
Answer: Its value is 550 ng/mL.

Question: What about the “2 × Clotting time, PT” value (Human Plasma [4]) of the same molecule?
Answer: Its value is 2,000 ng/ML.

Question: For Cl.N=C(N)NCCC[C@@H](C=O)NC(=O)[C@@H]1CCCN1C(=O)[C@@H](Cc1ccccc1)NC(=O)C(F)(F)F [Example 25, CF3 CO-D-Phe-Pro-Arg-H.HCl], which “Enzyme Kass, Human Thrombin” value (human thrombin) is on record?
Answer: The value was 26 L/mol × 10^6.

Question: And the “Enzyme Kass, Xa” value (factor Xa)?
Answer: The value was 0.033 L/mol × 10^6.

Question: And the “Enzyme Kass, Trypsin” value (Bovine trypsin)?
Answer: The value was 15 L/mol × 10^6.

Question: What about the “Enzyme Kass, Plasmin” value (Human plasmin) of the same molecule?
Answer: Its value is 0.31 L/mol × 10^6.

Question: And the “Enzyme Kass, t-Pa” value [1]?
Answer: Its value is 0.17 L/mol × 10^6.

Question: And the “2 × Clotting time, TT” value (Human Plasma [2])?
Answer: The value was 59 ng/mL.

Question: What about the “2 × Clotting time, APTT” value (Human Plasma [3]) of the same molecule?
Answer: The value was 1,300 ng/ML.

Question: And the “2 × Clotting time, PT” value (Human Plasma [4])?
Answer: The value was 1,800 ng/ML.

Question: Cl.N=C(N)NCCC[C@@H](C=O)NC(=O)[C@@H]1CCCN1C(=O)[C@@H](Cc1ccccc1)NC(=O)C1CCCCC1 [Example 27, cyclohexyl-CO-D-Phe-Pro-Arg-H.HCl] was tested. Which “Enzyme Kass, Human Thrombin” value (human thrombin) did it give?
Answer: The value was 20 L/mol × 10^6.

Question: What about the “Enzyme Kass, Xa” value (factor Xa) of the same molecule?
Answer: The value was 0.064 L/mol × 10^6.

Question: And the “Enzyme Kass, Trypsin” value (Bovine trypsin)?
Answer: Its value is 5.9 L/mol × 10^6.

Question: What about the “Enzyme Kass, Plasmin” value (Human plasmin) of the same molecule?
Answer: The value was 0.24 L/mol × 10^6.

Question: What about the “Enzyme Kass, t-Pa” value [1] of the same molecule?
Answer: The value was 0.26 L/mol × 10^6.

Question: What about the “2 × Clotting time, TT” value (Human Plasma [2]) of the same molecule?
Answer: The value was 63 ng/mL.

Question: What about the “2 × Clotting time, APTT” value (Human Plasma [3]) of the same molecule?
Answer: Its value is 1,300 ng/ML.

Question: What about the “2 × Clotting time, PT” value (Human Plasma [4]) of the same molecule?
Answer: Its value is 1,800 ng/ML.

Question: Which “Enzyme Kass, Human Thrombin” value (human thrombin) does the source give for CCS(=O)(=O)N[C@@H](C(=O)N1CCC[C@H]1C(=O)N[C@H](C=O)CCCNC(=N)N)C1CCCCC1.Cl [Example 22, EtSO2 -D-Chg-Pro-Arg-H.HCl] here?
Answer: The value was 260 L/mol × 10^6.

Question: What about the “Enzyme Kass, Xa” value (factor Xa) of the same molecule?
Answer: Its value is 24 L/mol × 10^6.

Question: What about the “Enzyme Kass, Trypsin” value (Bovine trypsin) of the same molecule?
Answer: Its value is 260 L/mol × 10^6.

Question: And the “Enzyme Kass, Plasmin” value (Human plasmin)?
Answer: Its value is 13 L/mol × 10^6.

Question: What about the “Enzyme Kass, t-Pa” value [1] of the same molecule?
Answer: The value was 0.11 L/mol × 10^6.

Question: What about the “2 × Clotting time, TT” value (Human Plasma [2]) of the same molecule?
Answer: Its value is 46 ng/mL.

Question: What about the “2 × Clotting time, APTT” value (Human Plasma [3]) of the same molecule?
Answer: The value was 330 ng/mL.

Question: And the “2 × Clotting time, PT” value (Human Plasma [4])?
Answer: The value was 1,100 ng/ML.

Question: Cl.Cn1c(C(=O)NC(CC2CCCCC2)C(=O)N2CCCC2C(=O)NC(C=O)CCCN=C(N)N)cc2ccccc21 [Example 5, NMI-D-Cha-Pro-Arg-H.HCl] was tested. Which “Enzyme Kass, Human Thrombin” value (human thrombin) did it give?
Answer: The value was 320 L/mol × 10^6.

Question: And the “Enzyme Kass, Xa” value (factor Xa)?
Answer: Its value is 4.6 L/mol × 10^6.

Question: And the “Enzyme Kass, Trypsin” value (Bovine trypsin)?
Answer: The value was 7.9 L/mol × 10^6.

Question: What about the “Enzyme Kass, Plasmin” value (Human plasmin) of the same molecule?
Answer: The value was 25 L/mol × 10^6.

Question: What about the “Enzyme Kass, t-Pa” value [1] of the same molecule?
Answer: The value was 1.1 L/mol × 10^6.

Question: And the “2 × Clotting time, TT” value (Human Plasma [2])?
Answer: Its value is 110 ng/mL.

Question: And the “2 × Clotting time, APTT” value (Human Plasma [3])?
Answer: The value was 1,000 ng/ML.

Question: And the “2 × Clotting time, PT” value (Human Plasma [4])?
Answer: The value was 2,500 ng/ML.
